In brackets after ≈: the same amount, converted by molar mass.
Assays:
Assay type in all cases: cell-based
CHO-K1 cells = assay: In-vitro micronucleus assay
Experimental: Genetic toxicology studies were performed on the compounds of the present disclosure to assess their ability to cause DNA damage. The in-vitro micronucleus assay measured the concentration (μM) of the compound at which micronuclei formation occurred. A micronuclei formation at lower concentration indicates more genetic damage or genotoxicity.
Micronucleus formation is a hallmark of genotoxicity, and the micronucleus assay is an important component of genotoxicity screening. Micronuclei are chromatin-containing bodies that represent fragments or even whole chromosomes that were not incorporated into a daughter cell nucleus at mitosis. The purpose of the assay is to detect agents that induce chromosome damage leading to the induction of micronuclei in interphase cells. The in vitro micronucleus assay was conducted in CHO-K1 cells according to the procedure described by Diaz, D et al [Mutat Res. 630(1-2):1-13. […] The formation of the micronucleus is identified by image-based high content analysis from binucleated cells.

hERG potassium channel = hERG potassium channel (Homo sapiens (Human), UniProt Q12809); assay: hERG inhibition assay (Qpatch HTX automated electrophysiology); conditions: CHO cell line expressing hERG, whole-cell patch clamp
Experimental: Electrophysiological recordings were made from a Chinese Hamster Ovary cell line stably expressing the full-length hERG potassium channel. Single cell ionic currents were measured in whole-cell patch clamp configuration at room temperature (21-23° C.) using the Qpatch HTX platform (Sophion). Intracellular solution contained (mM): 120 KF, 20 KCl, 10 EGTA, 10 HEPES and was buffered to pH 7.3. […] Cells were clamped at a holding potential of −80 mV. Cells were stepped to +20 mV for 2 s then −40 mV for 3 s before returning to the holding potential. […] Compounds were then incubated for 2 minutes prior to a second measurement of ion channel current using an identical pulse train.

[1] = tested on: Pseudomonas aeruginosa ATCC 27853; assay: Minimum Inhibitory Concentration (MIC) in LB media; conditions: Pseudomonas aeruginosa, ATCC27853
From the text: (§1) The compounds of Formula Ia and Formula Ib are of interest due to their potent antibacterial effects. The ability of the compounds disclosed herein to achieve an antibacterial effect may be evaluated with regard to their ability to inhibit the growth of bacterial species like Escherichia coli ATCC 25922, Staphylococcus aureus ATCC 29213, Klebsiella pneumoniae ATCC 13883, Acinetobacter baumannii ATCC 19606, Pseudomonas aeruginosa ATCC 27853 and Enterococcus faecalis ATCC 29212 using an assay based on the following Minimum Inhibitory Concentration (MIC) protocol:
(§2) The test bacteria were grown in Luria Bertani Broth (HIMEDIA M1245), 25 g of the powder was dissolved in 1000 ml distilled water and sterilized by autoclaving at 15 lbs pressure (121° C.) for 20 minutes. The medium sterility was checked by incubating at 37° C. for a period of 48 h. Bacterial cultures that were stored as glycerol stocks at −80° C. were subcultured on LB agar plates to obtain isolated colonies. A single colony of each strain was cultured in LB broth. The cultures were incubated at 37° C., 200 rpm till they reached an optical density (OD at 600 nm) of 0.8 to 1. This log phase culture was diluted in LB broth to a cell number of 5-8*10^5 CFU/mL to be used as inoculum for MIC experiments. Test compounds were dissolved in dimethyl sulfoxide (DMSO) to a stock concentration of 4 mg/ml. A two-fold dilution series of this DMSO stock was prepared in a 96 well V bottom microtitre plate from rows A to H. A 3 μL volume of these dilutions are transferred to a 96-well flat bottom microtitre assay plate. Controls to monitor the effects of DMSO and media sterility were included. Each well was inoculated with 150 μL of the above diluted culture. The plates were incubated at 37° C. overnight in a humidified incubator. The following morning, the plates were read using a Spectrophotometer at 600 nm wavelength. […] The antibacterial activity (MIC) determined against representative gram-positive (S. aureus, E. faecalis) and gram-negative (E. coli, Aeruginosa, K. pneumoniae, and A. baumannii) pathogen are reported Table 1.

[2] = tested on: Acinetobacter baumannii ATCC 19606; assay: Minimum Inhibitory Concentration (MIC) in LB media; conditions: Acinetobacter baumannii, ATCC19606
From the text: as §1, §2

[3] = tested on: Staphylococcus aureus ATCC 29213; assay: Minimum Inhibitory Concentration (MIC) in LB media; conditions: Staphylococcus aureus, ATCC29213, read-out: Minimum Inhibitory Concentration S. aureus ATCC 29213
From the text: as §1, §2

[4] = tested on: Enterococcus faecalis ATCC 29212; assay: Minimum Inhibitory Concentration (MIC) in LB media; conditions: Enterococcus faecalis, ATCC29212, read-out: Minimum Inhibitory Concentration E. faecalis ATCC 29212
From the text: as §1, §2

[5] = tested on: Klebsiella pneumoniae ATCC 13883; assay: Minimum Inhibitory Concentration (MIC) in LB media; conditions: Klebsiella pneumoniae, ATCC13883, read-out: Minimum Inhibitory Concentration K. pneumoniae ATCC 13883
From the text: as §1, §2

[6] = tested on: Escherichia coli ATCC 25922; assay: Minimum Inhibitory Concentration (MIC) in LB media; conditions: Escherichia coli, ATCC25922, read-out: Minimum Inhibitory Concentration E. coli ATCC 25922
From the text: as §1, §2

hERG potassium channel, sequence (Q12809 whole entry): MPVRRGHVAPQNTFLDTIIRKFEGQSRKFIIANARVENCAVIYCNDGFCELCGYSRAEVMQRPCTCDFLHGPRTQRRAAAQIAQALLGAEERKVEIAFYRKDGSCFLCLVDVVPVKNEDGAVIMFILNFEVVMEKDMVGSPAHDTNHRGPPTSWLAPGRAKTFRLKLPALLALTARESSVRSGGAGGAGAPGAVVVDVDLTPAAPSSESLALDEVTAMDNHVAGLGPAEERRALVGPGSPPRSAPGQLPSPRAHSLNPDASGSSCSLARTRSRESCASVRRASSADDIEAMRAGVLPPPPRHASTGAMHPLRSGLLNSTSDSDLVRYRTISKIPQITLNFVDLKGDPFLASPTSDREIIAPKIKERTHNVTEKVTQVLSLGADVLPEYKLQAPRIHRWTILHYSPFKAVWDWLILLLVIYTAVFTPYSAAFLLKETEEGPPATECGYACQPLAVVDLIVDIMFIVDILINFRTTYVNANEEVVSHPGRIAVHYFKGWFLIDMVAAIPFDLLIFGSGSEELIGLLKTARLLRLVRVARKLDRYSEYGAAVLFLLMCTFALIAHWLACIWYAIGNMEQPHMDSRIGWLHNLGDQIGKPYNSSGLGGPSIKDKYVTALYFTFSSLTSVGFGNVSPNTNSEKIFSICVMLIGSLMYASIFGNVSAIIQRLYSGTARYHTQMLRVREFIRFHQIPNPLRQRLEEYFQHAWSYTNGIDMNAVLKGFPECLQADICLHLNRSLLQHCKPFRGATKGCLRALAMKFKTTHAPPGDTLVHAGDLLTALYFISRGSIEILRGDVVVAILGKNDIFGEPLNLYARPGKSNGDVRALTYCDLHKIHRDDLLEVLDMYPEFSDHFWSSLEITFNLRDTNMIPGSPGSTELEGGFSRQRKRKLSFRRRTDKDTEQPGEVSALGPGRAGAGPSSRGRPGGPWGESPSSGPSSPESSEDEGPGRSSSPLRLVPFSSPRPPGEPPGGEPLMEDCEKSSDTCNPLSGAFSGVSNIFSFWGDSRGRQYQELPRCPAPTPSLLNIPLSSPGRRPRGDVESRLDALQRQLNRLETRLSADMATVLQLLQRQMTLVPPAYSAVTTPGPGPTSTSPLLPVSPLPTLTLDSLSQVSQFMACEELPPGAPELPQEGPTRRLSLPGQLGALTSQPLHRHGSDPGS

SMILES	genotoxicity risk (in words) (CHO-K1 cells)	% (in-vitro micronucleus assay) (CHO-K1 cells; Chinese hamster) [%]	In vitro micronucleus forming concentration (CHO-K1 cells; Chinese hamster) [µM]	IC50 (hERG potassium channel) [µM]	MIC [1] [µg/mL]	MIC [2] [µg/mL]	MIC [3] [µg/mL]	MIC [4] [µg/mL]	MIC [5] [µg/mL]	MIC [6] [µg/mL]	micronucleus formation (in words) (CHO-K1 cells)	% (in-vitro micronucleus assay) (CHO-K1 cells; CHO-K1 cells) [%]	In vitro micronucleus forming concentration (CHO-K1 cells; CHO-K1 cells) [µM]
[2H]C([2H])([2H])N1C(=O)CNc2ccc(OCCNCC3CN(c4cnc5c(n4)NC(=O)CS5)C(=O)O3)nc21 (stereo in doubt) [Compound 9, (R)-5-(((2-((4-(methyl-d3)-3-oxo-1,2,3,4-tetrahydropyrido[2,3-b]pyrazin-6-yl)oxy)ethyl)amino)methyl)-3-(3-oxo-3,4-dihydro-2H-pyrazino[2,3-b][1,4]thiazin-6-yl) oxazolidin-2-one]	completely devoid of any genotoxicity risk	0.51	>1000	141	1 (≈ 2.04 µM)	0.03 (≈ 0.0613 µM)	< 0.015	0.03 (≈ 0.0613 µM)	0.06 (≈ 0.123 µM)	0.06 (≈ 0.123 µM)			
O=C(O)c1cn(C2CC2)c2cc(N3CCNCC3)c(F)cc2c1=O [Ciprofloxacin, reference compound]					0.1 (≈ 0.302 µM)	0.4 (≈ 1.21 µM)	0.4 (≈ 1.21 µM)	0.4 (≈ 1.21 µM)	0.05 (≈ 0.151 µM)	0.012 (≈ 0.0362 µM)			
CN1C(=O)CNc2ccc(OCCNC[C@@H]3CN(c4cnc5c(n4)NC(=O)CS5)C(=O)O3)nc21 [Compound 5, (R)-5-(((2-((4-methyl-3-oxo-1,2,3,4-tetrahydropyrido[2,3-b]pyrazin-6-yl)oxy)ethyl)amino)methyl)-3-(3-oxo-3,4-dihydro-2H-pyrazino[2,3-b][1,4]thiazin-6-yl)oxazolidin-2-one]	completely devoid of any genotoxicity risk	0.5	>1000	> 300	1 (≈ 2.06 µM)	0.06 (≈ 0.123 µM)	< 0.015	0.125 (≈ 0.257 µM)	0.06 (≈ 0.123 µM)	0.03 (≈ 0.0617 µM)	did not induce micronucleus formation		
CN1C(=O)CNc2ccc(OCCNC[C@H]3CN(c4cnc5c(n4)NC(=O)CS5)C(=O)O3)nc21 [Compound 6, (S)-5-(((2-((4-methyl-3-oxo-1,2,3,4-tetrahydropyrido[2,3-b]pyrazin-6-yl)oxy)ethyl)amino)methyl)-3-(3-oxo-3,4-dihydro-2H-pyrazino[2,3-b][1,4]thiazin-6-yl)oxazolidin-2-one]	completely devoid of any genotoxicity risk	0.4	>1000	> 300	0.5 (≈ 1.03 µM)	0.06 (≈ 0.123 µM)	< 0.015	0.06 (≈ 0.123 µM)	0.06 (≈ 0.123 µM)	0.06 (≈ 0.123 µM)	did not induce micronucleus formation		
CN1C(=O)CNc2cc(F)c(OCCNC[C@@H]3CN(c4cnc5c(n4)NC(=O)CS5)C(=O)O3)nc21 [Compound 7, (R)-5-(((2-((7-fluoro-4-methyl-3-oxo-1,2,3,4-tetrahydropyrido[2,3-b]pyrazin-6-yl)oxy)ethyl)amino)methyl)-3-(3-oxo-3,4-dihydro-2H-pyrazino[2,3-b][1,4]thiazin-6-yl)oxazolidin-2-one]	completely devoid of any genotoxicity risk	0.41	>1000	> 300	1 (≈ 1.98 µM)	0.03 (≈ 0.0595 µM)	< 0.015	0.06 (≈ 0.119 µM)	0.06 (≈ 0.119 µM)	0.03 (≈ 0.0595 µM)			
CO[C@@]12[C@H](COC(N)=O)C3=C(C(=O)C(C)=C(N)C3=O)N1C[C@@H]1N[C@@H]12 [Mitomycin C, reference compound]												1.98	0.300
